Our source for the IC50 values is patent US12187723B2 (BRISTOL-MYERS SQUIBB COMPANY, priority 2019, dated 2025).

Where only a bound is given, the exact number is not on record here.

This test concerns the target T1, human TLR7 (Homo sapiens, UniProt Q9NYK1).
T1 construct: host or cells: HEK-Blue cells
T1 sequence (Q9NYK1 27-1049): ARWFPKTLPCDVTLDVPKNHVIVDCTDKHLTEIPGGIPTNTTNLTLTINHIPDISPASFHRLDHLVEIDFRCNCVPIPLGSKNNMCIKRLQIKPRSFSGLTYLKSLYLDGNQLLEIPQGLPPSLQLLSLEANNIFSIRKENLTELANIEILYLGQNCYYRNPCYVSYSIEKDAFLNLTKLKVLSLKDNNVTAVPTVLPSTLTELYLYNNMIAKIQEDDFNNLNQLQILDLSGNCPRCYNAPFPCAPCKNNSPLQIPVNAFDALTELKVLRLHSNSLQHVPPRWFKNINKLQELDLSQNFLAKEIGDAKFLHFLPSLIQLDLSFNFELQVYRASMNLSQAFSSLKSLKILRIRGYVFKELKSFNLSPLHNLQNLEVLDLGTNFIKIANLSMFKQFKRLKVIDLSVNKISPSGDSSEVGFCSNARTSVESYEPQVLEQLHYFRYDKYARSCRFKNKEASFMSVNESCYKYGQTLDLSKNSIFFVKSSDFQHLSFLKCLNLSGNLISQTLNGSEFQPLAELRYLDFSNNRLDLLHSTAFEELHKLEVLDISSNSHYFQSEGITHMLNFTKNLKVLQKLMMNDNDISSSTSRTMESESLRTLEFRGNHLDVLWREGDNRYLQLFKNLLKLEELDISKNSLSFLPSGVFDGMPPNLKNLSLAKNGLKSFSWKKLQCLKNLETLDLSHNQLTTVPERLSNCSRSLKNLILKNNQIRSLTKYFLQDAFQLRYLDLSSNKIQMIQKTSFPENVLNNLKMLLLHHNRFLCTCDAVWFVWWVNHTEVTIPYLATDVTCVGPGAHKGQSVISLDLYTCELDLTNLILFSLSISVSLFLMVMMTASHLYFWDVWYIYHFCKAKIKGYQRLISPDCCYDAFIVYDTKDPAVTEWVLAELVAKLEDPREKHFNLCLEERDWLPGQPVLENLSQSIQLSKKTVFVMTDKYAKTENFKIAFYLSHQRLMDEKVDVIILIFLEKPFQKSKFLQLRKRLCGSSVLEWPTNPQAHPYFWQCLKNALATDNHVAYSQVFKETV
The test is described as follows: TLR7 inhibition reporter assay (HEK-Blue SEAP). In kind it is cell-based. To be noted: HEK-Blue cells overexpressing human TLR7, gardiquimod 7.5 μM, 22 hour incubation. An outline of the steps: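 22 h, 37° C, 5% CO2 incubation; compounds 0.05 nM-50 μM final; TLR7 cells 15000/well, TLR8 20,000/well. Readout: SEAP via HEK-Blue Detection medium. % inhibition = signal reduction versus agonist + DMSO wells, referenced to known inhibitor.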
As to `COc1cc(-c2cc3[nH]c(=O)n([C@H]4CC[C@@H](NCC5CC5)CC4)c3cc2C)cn2ncnc12` [Example 60, 1-((1s,4s)-4-((cyclopropylmethyl)amino)cyclohexyl)-5-(8-methoxy-[1,2,4]triazolo[1,5-a]pyridin-6-yl)-6-methyl-1,3-dihydro-2H-benzo[d]imidazol-2-one], the IC50 worked out at 0.0276 µM. This counts as double-digit nanomolar.

In the case of `CCC(CC)CN1CCC(n2c(=O)[nH]c3cc(-c4cc(OC)c5ncnn5c4)ccc32)CC1` [Example 75, 1-(1-(2-ethylbutyl)piperidin-4-yl)-5-(8-methoxy-[1,2,4]triazolo[1,5-a]pyridin-6-yl)-1,3-dihydro-2H-benzo[d]imidazol-2-one], the IC50 came out at 1.36 µM.

As to `Cc1cc2c(cc1-c1cc(C)c3ncnn3c1)[nH]c(=O)n2[C@@H]1CCCN(Cc2ncn(C)n2)C1` [Example 35, (R)-6-methyl-1-(1-((1-methyl-1H-1,2,4-triazol-3-yl)methyl)piperidin-3-yl)-5-(8-methyl-[1,2,4]triazolo[1,5-a]pyridin-6-yl)-1,3-dihydro-2H-benzo[d]imidazol-2-one], 0.722 µM corresponded to half-maximal inhibition (IC50).

As to `COc1cc(-c2ccc3c(c2)[nH]c(=O)n3C2CCN(C(C)C)CC2)cn2ncnc12` [Example 77, 1-(1-isopropylpiperidin-4-yl)-5-(8-methoxy-[1,2,4]triazolo[1,5-a]pyridin-6-yl)-1,3-dihydro-2H-benzo[d]imidazol-2-one], the IC50 came out at 1.53 µM.

`CCCN1CCC(n2c(=O)[nH]c3cc(-c4cc(OC)c5ncnn5c4)ccc32)CC1` [Example 76, 5-(8-methoxy-[1,2,4]triazolo[1,5-a]pyridin-6-yl)-1-(1-propylpiperidin-4-yl)-1,3-dihydro-2H-benzo[d]imidazol-2-one] yielded a half-inhibitory concentration (IC50) of 1.48 µM.

Take `COc1cc(-c2ccc3c(c2)[nH]c(=O)n3C2CCN(CC3CC3)CC2)cn2ncnc12` [Example 79, 1-(1-(cyclopropylmethyl)piperidin-4-yl)-5-(8-methoxy-[1,2,4]triazolo[1,5-a]pyridin-6-yl)-1,3-dihydro-2H-benzo[d]imidazol-2-one]: the IC50 was > 3.13 µM.

In the case of `COc1ncc(CN2CCC[C@H](n3c(=O)[nH]c4cc(-c5cc(C)c6ncnn6c5)c(C)cc43)C2)cn1` [Example 36, (S)-1-(1-((2-methoxypyrimidin-5-yl)methyl)piperidin-3-yl)-6-methyl-5-(8-methyl-[1,2,4]triazolo[1,5-a]pyridin-6-yl)-1,3-dihydro-2H-benzo[d]imidazol-2-one], the IC50 amounted to 0.171 µM.

`COc1cc(-c2cc3[nH]c(=O)n([C@H]4CC[C@@H](NCC5CCCCC5)CC4)c3cc2C)cn2ncnc12` [Example 66, 1-((1s,4s)-4-((cyclohexylmethyl)amino)cyclohexyl)-5-(8-methoxy-[1,2,4]triazolo[1,5-a]pyridin-6-yl)-6-methyl-1,3-dihydro-2H-benzo[d]imidazol-2-one] showed an IC50 of 0.0208 µM.

`Cc1cc2c(cc1-c1cc(C)c3ncnn3c1)[nH]c(=O)n2C1CCN(CC(=O)N(C)C)CC1` [Example 89, N,N-dimethyl-2-(4-(6-methyl-5-(8-methyl-[1,2,4]triazolo[1,5-a]pyridin-6-yl)-2-oxo-2,3-dihydro-1H-benzo[d]imidazol-1-yl)piperidin-1-yl)acetamide] returned an IC50 of 0.111 µM.

Regarding `CCC(C)N[C@H]1CC[C@@H](n2c(=O)[nH]c3cc(-c4cc(C)c5ncnn5c4)c(C)cc32)CC1` (some centres unmarked) [Example 34, 1-((1s,4s)-4-(sec-butylamino)cyclohexyl)-6-methyl-5-(8-methyl-[1,2,4]triazolo[1,5-a]pyridin-6-yl)-1,3-dihydro-2H-benzo[d]imidazol-2-one], 0.0205 µM corresponded to half-maximal inhibition (IC50).

Consider `COc1cc(-c2cc3[nH]c(=O)n([C@@H]4CCCN(CC5CCOCC5)C4)c3cc2C)cn2ncnc12` [Example 57, (R)-5-(8-methoxy-[1,2,4]triazolo[1,5-a]pyridin-6-yl)-6-methyl-1-(1-((tetrahydro-2H-pyran-4-yl)methyl)piperidin-3-yl)-1,3-dihydro-2H-benzo[d]imidazol-2-one], for which the IC50 is 0.00811 µM.

For `COc1cc(-c2cc3[nH]c(=O)n([C@H]4CC[C@@H](N(C)C)CC4)c3cc2C)cn2ncnc12` [Example 48, 1-((1s,4s)-4-(dimethylamino)cyclohexyl)-5-(8-methoxy-[1,2,4]triazolo[1,5-a]pyridin-6-yl)-6-methyl-1,3-dihydro-2H-benzo[d]imidazol-2-one], the midpoint of inhibition, the IC50, lay at 0.0148 µM.

Compound `Cc1cc2c(cc1-c1cc(C)c3ncnn3c1)[nH]c(=O)n2[C@@H]1CCCN(CC(C)C)C1` [Example 40, (R)-1-(1-isobutylpiperidin-3-yl)-6-methyl-5-(8-methyl-[1,2,4]triazolo[1,5-a]pyridin-6-yl)-1,3-dihydro-2H-benzo[d]imidazol-2-one] showed an IC50 of 0.0148 µM.

With `CNC(=O)CN1CCC(n2c(=O)[nH]c3cc(-c4cc(C)c5ncnn5c4)c(C)cc32)CC1` [Example 88, N-methyl-2-(4-(6-methyl-5-(8-methyl-[1,2,4]triazolo[1,5-a]pyridin-6-yl)-2-oxo-2,3-dihydro-1H-benzo[d]imidazol-1-yl)piperidin-1-yl)acetamide], the IC50 turned out to be 0.333 µM.

As for `COc1cc(-c2cc3[nH]c(=O)n([C@H]4CC[C@@H](NC5CCCC5)CC4)c3cc2C)cn2ncnc12` [Example 65, 1-((1s,4s)-4-(cyclopentylamino)cyclohexyl)-5-(8-methoxy-[1,2,4]triazolo[1,5-a]pyridin-6-yl)-6-methyl-1,3-dihydro-2H-benzo[d]imidazol-2-one], the IC50 was determined as 0.0105 µM.

`Cc1cc2c(cc1-c1cc(C)c3ncnn3c1)[nH]c(=O)n2[C@@H]1CCCN(CC2CCCC2)C1` [Example 47, (R)-1-(1-(cyclopentylmethyl)piperidin-3-yl)-6-methyl-5-(8-methyl-[1,2,4]triazolo[1,5-a]pyridin-6-yl)-1,3-dihydro-2H-benzo[d]imidazol-2-one] registered an IC50 of 0.0185 µM.

As to `Cc1cc2c(cc1-c1cc(C)c3ncnn3c1)[nH]c(=O)n2C1CCN(CC(=O)N(C)C)CC1` [Example 91, N,N-dimethyl-2-(4-(6-methyl-5-(8-methyl-[1,2,4]triazolo[1,5-a]pyridin-6-yl)-2-oxo-2,3-dihydro-1H-benzo[d]imidazol-1-yl)piperidin-1-yl)acetamide], the IC50 is > 3.13 µM.

`Cc1cc2c(cc1-c1cc(C)c3ncnn3c1)[nH]c(=O)n2[C@H]1CC[C@@H](NCc2ncn(C)n2)CC1` [Example 33, 6-methyl-1-((1s,4s)-4-(((1-methyl-1H-1,2,4-triazol-3-yl)methyl)amino)cyclohexyl)-5-(8-methyl-[1,2,4]triazolo[1,5-a]pyridin-6-yl)-1,3-dihydro-2H-benzo[d]imidazol-2-one] showed an IC50 of 0.138 µM.

Turning to `Cc1cc2c(cc1-c1cc(C)c3ncnn3c1)[nH]c(=O)n2[C@H]1CC[C@@H](NCC(C)(C)C)CC1` [Example 32, 6-methyl-5-(8-methyl-[1,2,4]triazolo[1,5-a]pyridin-6-yl)-1-((1s,4s)-4-(neopentylamino)cyclohexyl)-1,3-dihydro-2H-benzo[d]imidazol-2-one], inhibition was half-maximal at 0.0204 µM (IC50). Compared with the last compound, the IC50 is about 6.8-fold lower.

Compound `Cc1cc2c(cc1-c1cc(C)c3ncnn3c1)[nH]c(=O)n2[C@@H]1CCCN(Cc2cccnc2)C1` [Example 46, (R)-6-methyl-5-(8-methyl-[1,2,4]triazolo[1,5-a]pyridin-6-yl)-1-(1-(pyridin-3-ylmethyl)piperidin-3-yl)-1,3-dihydro-2H-benzo[d]imidazol-2-one] came in with an IC50 of 0.172 µM.

With `COc1cc(-c2ccc3c(c2)[nH]c(=O)n3C2CCN(C3COC3)CC2)cn2ncnc12` [Example 80, 5-(8-methoxy-[1,2,4]triazolo[1,5-a]pyridin-6-yl)-1-(1-(oxetan-3-yl)piperidin-4-yl)-1,3-dihydro-2H-benzo[d]imidazol-2-one], the IC50 was > 3.13 µM.

Regarding `Cc1cc2c(cc1-c1cc(C)c3ncnn3c1)[nH]c(=O)n2[C@H]1CCCN(CC(=O)N(C)C)C1` [Example 93, (S)—N,N-dimethyl-2-(3-(6-methyl-5-(8-methyl-[1,2,4]triazolo[1,5-a]pyridin-6-yl)-2-oxo-2,3-dihydro-1H-benzo[d]imidazol-1-yl)piperidin-1-yl)acetamide], it took 0.565 µM to reach half-maximal inhibition (IC50).

Turning to `COc1cc(-c2ccc3c(c2)[nH]c(=O)n3C2CCN(C)CC2)cn2ncnc12` [Example 74, 5-(8-methoxy-[1,2,4]triazolo[1,5-a]pyridin-6-yl)-1-(1-methylpiperidin-4-yl)-1,3-dihydro-2H-benzo[d]imidazol-2-one], it took 0.948 µM to reach half-maximal inhibition (IC50). This IC50 is about 1.7-fold higher than that of the compound before.
